Measurements published in patent US20250296959A1, “B7-H3 TARGETING PEPTIDES AND CONSTRUCTS THEREOF” (Mariana Oncology Inc., priority 2024, published 2025).
Starred links: 1 amine or outer side, 2 acyl side, 3 side chain; linkers in the order of their positions; H or OH if unused. Positions of bridges follow the written chain, without caps; N, C: chain ends. Non-standard residues stand in square brackets, D forms with d. Residues, ends and D or L forms follow the SMILES beside them. Groups on a side chain read outwards from the residue. *: point of attachment. Ala(1-CH2CO2H-4-piperidyl) = N[C@@H](CC1CCN(CC(=O)O)CC1)C(=O)O; Ala(piperidin-4-yl) = O=C([C@H](CC1CCN([*:3])CC1)N[*:1])[*:2]; DOTA = O=C(O)CN1CCN(CC(=O)O)CCN(CC(=O)*)CCN(CC(=O)O)CC1; Trp(5-Cl) = N[C@@H](Cc1c[nH]c2ccc(Cl)cc12)C(=O)O; Trp(5-F) = N[C@@H](Cc1c[nH]c2ccc(F)cc12)C(=O)O; γGlu = O=C(O)[C@H](CCC(=O)[*:2])N[*:1]; Ala(4-THP) = N[C@@H](CC1CCOCC1)C(=O)O; Val(3-OH) = CC(C)(O)[C@H](N)C(=O)O; hCha = N[C@@H](CCC1CCCCC1)C(=O)O; Aad = N[C@@H](CCCC(=O)O)C(=O)O; Cit = NC(=O)NCCC[C@H](N)C(=O)O; PEG4 = NCCOCCOCCOCCOCCC(=O)O; Tle = CC(C)(C)[C@H](N)C(=O)O; hLeu = CC(C)CC[C@H](N)C(=O)O; Nle = CCCC[C@H](N)C(=O)O

Biological target: T1, human 4lg B7-H3 (Homo sapiens, UniProt Q5ZPR3)
T1 sequence (Q5ZPR3 29-534): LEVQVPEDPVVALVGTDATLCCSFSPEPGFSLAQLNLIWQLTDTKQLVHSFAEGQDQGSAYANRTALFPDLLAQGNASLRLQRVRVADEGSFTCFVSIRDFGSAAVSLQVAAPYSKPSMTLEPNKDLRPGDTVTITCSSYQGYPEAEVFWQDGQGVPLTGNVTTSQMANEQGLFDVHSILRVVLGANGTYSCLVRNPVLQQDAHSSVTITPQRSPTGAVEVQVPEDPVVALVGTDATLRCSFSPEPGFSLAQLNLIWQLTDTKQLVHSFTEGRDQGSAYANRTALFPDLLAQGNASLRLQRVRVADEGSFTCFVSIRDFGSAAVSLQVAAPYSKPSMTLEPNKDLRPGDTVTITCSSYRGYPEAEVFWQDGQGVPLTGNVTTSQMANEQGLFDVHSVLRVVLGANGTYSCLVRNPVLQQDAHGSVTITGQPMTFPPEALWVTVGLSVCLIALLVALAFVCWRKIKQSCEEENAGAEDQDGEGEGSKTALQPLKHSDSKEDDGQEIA
Assay: Affinity determination by surface plasmon resonance (SPR) to 4Ig B7-H3
Conditions: SPR KD—25° C., 4Ig B7-H3; 25° C. flow cell temperature

Structure (SMILES) | Kd [nM]
CCCC[C@H](NC(C)=O)C(=O)N[C@@H](Cc1ccc(O)cc1)C(=O)N[C@H]1CSSC[C@@H](C(=O)N[C@@H](Cc2c[nH]c3ccccc23)C(=O)N[C@@H](Cc2ccccc2)C(=O)N[C@H](C(=O)N[C@H](CCCCNC(=O)CN2CCN(CC(=O)O)CCN(CC(=O)O)CCN(CC(=O)O)CC2)C(=O)O)[C@@H](C)O)NC(=O)[C@H](Cc2ccc(O)cc2)NC(=O)[C@H](C(C)C)NC(=O)[C@H](CCCC(=O)O)NC(=O)[C@H](Cc2ccc(O)cc2)NC(=O)[C@H](CCCCN)NC(=O)CNC(=O)[C@H](C(C)C)NC1=O [compound 102, Ac-Nle-Y-C-V-G-K-Y-HomoGlu-V-Y-C-W-F-Thr-dLys(DOTA)-COOH] (Ac-[Nle]YCVGKY[Aad]VYCWFT[dK](DOTA)-OH; disulfide 3-11) | 100 to 300
CCCC[C@H](NC(C)=O)C(=O)N[C@@H](Cc1ccc(O)cc1)C(=O)N[C@H]1CSSC[C@@H](C(=O)N[C@@H](Cc2c[nH]c3ccc(F)cc23)C(=O)N[C@@H](Cc2ccccc2)C(=O)N[C@H](C(=O)N[C@H](CCCCNC(=O)CN2CCN(CC(=O)O)CCN(CC(=O)O)CCN(CC(=O)O)CC2)C(N)=O)[C@@H](C)O)NC(=O)[C@H](Cc2ccc(O)cc2)NC(=O)[C@H](C(C)C)NC(=O)[C@H](CC(=O)O)NC(=O)[C@H](Cc2ccc(O)cc2)NC(=O)[C@H](CCCCN)NC(=O)CNC(=O)[C@H](C(C)C)NC1=O [compound 133, Ac-Nle-Y-C-V-G-K-Y-D-V-Y-C-5FW-F-Thr-dLys(DOTA)-CONH2] (Ac-[Nle]YCVGKYDVYC[Trp(5-F)]FT[dK](DOTA)-NH2; disulfide 3-11) | 1 to 10
CC(=O)N[C@@H](CCC(C)C)C(=O)N[C@@H](Cc1ccc(O)cc1)C(=O)N[C@H]1CSSC[C@@H](C(=O)N[C@@H](Cc2c[nH]c3ccccc23)C(=O)N[C@@H](Cc2ccccc2)C(=O)N[C@H](C(N)=O)[C@@H](C)O)NC(=O)[C@H](Cc2ccc(O)cc2)NC(=O)[C@H](CCCCNC(=O)CN2CCN(CC(=O)O)CCN(CC(=O)O)CCN(CC(=O)O)CC2)NC(=O)[C@H](CC(=O)O)NC(=O)[C@H](Cc2ccc(O)cc2)NC(=O)[C@H](CCCCN)NC(=O)CNC(=O)[C@H](C(C)C)NC1=O [compound 143, Ac-hLeu-Y-C-V-G-K-Y-D-Lys(DOTA)-Y-C-W-F-Thr-CONH2] (Ac-[hLeu]YCVGKYDK(DOTA)YCWFT-NH2; disulfide 3-11) | 10 to 100
CC(=O)N[C@@H](CCC(C)C)C(=O)N[C@@H](Cc1ccc(O)cc1)C(=O)N[C@H]1CSSC[C@@H](C(=O)N[C@@H](Cc2c[nH]c3ccc(F)cc23)C(=O)N[C@@H](Cc2ccccc2)C(=O)N[C@H](C(=O)N[C@H](CCCCNC(=O)CN2CCN(CC(=O)O)CCN(CC(=O)O)CCN(CC(=O)O)CC2)C(=O)O)[C@@H](C)O)NC(=O)[C@H](Cc2ccc(O)cc2)NC(=O)[C@H](C(C)C)NC(=O)[C@H](CC(=O)O)NC(=O)[C@H](CC2CCOCC2)NC(=O)[C@H](CCCCN)NC(=O)CNC(=O)[C@H](C(C)(C)C)NC1=O [compound 332, Ac-hLeu-Y-C-Tbg-G-K-ThpA-D-V-Y-C-5FW-F-Thr-dLys(DOTA)-COOH] (Ac-[hLeu]YC[Tle]GK[Ala(4-THP)]DVYC[Trp(5-F)]FT[dK](DOTA)-OH; disulfide 3-11) | < 1

Same assay, conditions: SPR KD—37° C., 4Ig B7-H3; 37° C. flow cell temperature

Structure (SMILES) | Kd [nM]
CC(=O)N[C@@H](CCC(C)C)C(=O)N[C@@H](Cc1ccc(O)cc1)C(=O)N[C@H]1CSSC[C@@H](C(=O)N[C@@H](Cc2c[nH]c3ccc(Cl)cc23)C(=O)N[C@@H](Cc2ccccc2)C(=O)N[C@H](C(=O)N[C@H](CCCCNC(=O)CN2CCN(CC(=O)O)CCN(CC(=O)O)CCN(CC(=O)O)CC2)C(=O)O)C(C)(C)O)NC(=O)[C@H](Cc2ccc(O)cc2)NC(=O)[C@H](C(C)C)NC(=O)[C@H](CC(=O)O)NC(=O)[C@H](CC2CCOCC2)NC(=O)[C@H](CC2CCNCC2)NC(=O)CNC(=O)[C@H](C(C)(C)C)NC1=O [compound 457, Ac-hLeu-Y-C-Tbg-G-PipAla-ThpA-D-V-Y-C-5ClW-F-hydroxyVal-dLys(DOTA)-COOH] (Ac-[hLeu]YC[Tle]G[Ala(piperidin-4-yl)][Ala(4-THP)]DVYC[Trp(5-Cl)]F[Val(3-OH)][dK](DOTA)-OH; disulfide 3-11) | < 1
CC[C@H](C)[C@@H]1NC(=O)[C@@H](NC(=O)[C@H](Cc2ccc(O)cc2)NC(=O)[C@H](CCC(C)C)NC(C)=O)CSSC[C@@H](C(=O)N[C@@H](Cc2c[nH]c3ccc(F)cc23)C(=O)N[C@@H](Cc2ccccc2)C(=O)N[C@H](C(=O)O)C(C)(C)O)NC(=O)[C@H](Cc2ccc(O)cc2)NC(=O)[C@H](C(C)C)NC(=O)[C@H](CC(=O)O)NC(=O)[C@H](CC2CCN(CC(=O)O)CC2)NC(=O)[C@H](CCCCNC(=O)CN2CCN(CC(=O)O)CCN(CC(=O)O)CCN(CC(=O)O)CC2)NC(=O)CNC1=O [compound 324, Ac-hLeu-Y-C-Ile-G-Lys(DOTA)-Pip(CH2COOH)Ala-D-V-Y-C-5FW-F-hydroxyVal-COOH] (Ac-[hLeu]YCIGK(DOTA)[Ala(1-CH2CO2H-4-piperidyl)]DVYC[Trp(5-F)]F[Val(3-OH)]-OH; disulfide 3-11) | 10 to 100
CC(=O)N[C@@H](CCC(C)C)C(=O)N[C@@H](Cc1ccc(O)cc1)C(=O)N[C@H]1CSSC[C@@H](C(=O)N[C@@H](Cc2c[nH]c3ccc(F)cc23)C(=O)N[C@@H](Cc2ccccc2)C(=O)N[C@H](C(=O)N[C@H](CCCCNC(=O)CN2CCN(CC(=O)O)CCN(CC(=O)O)CCN(CC(=O)O)CC2)C(=O)O)C(C)(C)O)NC(=O)[C@H](Cc2ccc(O)cc2)NC(=O)[C@H](C(C)C)NC(=O)[C@H](CC(=O)O)NC(=O)[C@H](CC2CCOCC2)NC(=O)[C@@H]2CCCN2C(=O)CNC(=O)[C@H](C(C)(C)C)NC1=O [compound 349, Ac-hLeu-Y-C-Tbg-G-Pro-ThpA-D-V-Y-C-5FW-F-hydroxyVal-dLys(DOTA)-COOH] (Ac-[hLeu]YC[Tle]GP[Ala(4-THP)]DVYC[Trp(5-F)]F[Val(3-OH)][dK](DOTA)-OH; disulfide 3-11) | 10 to 100
CC(=O)N[C@@H](CCC1CCCCC1)C(=O)N[C@@H](Cc1ccc(O)cc1)C(=O)N[C@H]1CSSC[C@@H](C(=O)N[C@@H](Cc2c[nH]c3ccc(F)cc23)C(=O)N[C@@H](Cc2ccccc2)C(=O)N[C@H](C(=O)N[C@H](C)C(=O)O)C(C)(C)O)NC(=O)[C@H](Cc2ccc(O)cc2)NC(=O)[C@H](C(C)C)NC(=O)[C@H](CC(=O)O)NC(=O)[C@H](CC2CCOCC2)NC(=O)[C@H](CC2CCN(C(=O)CC[C@H](NC(=O)CN3CCN(CC(=O)O)CCN(CC(=O)O)CCN(CC(=O)O)CC3)C(=O)O)CC2)NC(=O)CNC(=O)[C@H](C(C)(C)C)NC1=O [compound 486, Ac-hCha-Y-C-Tbg-G-Pip(gE-DOTA)Ala-ThpA-D-V-Y-C-5FW-F-hydroxyVal-dAla-COOH] (Ac-[hCha]YC[Tle]G[Ala(piperidin-4-yl)]([γGlu-DOTA])[Ala(4-THP)]DVYC[Trp(5-F)]F[Val(3-OH)][dA]-OH; disulfide 3-11) | < 1
CC(=O)N[C@@H](CCC(C)C)C(=O)N[C@@H](Cc1ccc(O)cc1)C(=O)N[C@H]1CSSC[C@@H](C(=O)N[C@@H](Cc2c[nH]c3ccc(F)cc23)C(=O)N[C@@H](Cc2ccccc2)C(=O)N[C@H](C(=O)N[C@H](CCCCNC(=O)CN2CCN(CC(=O)O)CCN(CC(=O)O)CCN(CC(=O)O)CC2)C(=O)O)C(C)(C)O)NC(=O)[C@H](Cc2ccc(O)cc2)NC(=O)[C@H]([C@@H](C)O)NC(=O)[C@H](CC(=O)O)NC(=O)[C@H](CC2CCOCC2)NC(=O)[C@H](CCCCN)NC(=O)CNC(=O)[C@H](C(C)(C)C)NC1=O [compound 377, Ac-hLeu-Y-C-Tbg-G-K-ThpA-D-Thr-Y-C-5FW-F-hydroxyVal-dLys(DOTA)-COOH] (Ac-[hLeu]YC[Tle]GK[Ala(4-THP)]DTYC[Trp(5-F)]F[Val(3-OH)][dK](DOTA)-OH; disulfide 3-11) | 10 to 100
CCCC[C@H](NC(C)=O)C(=O)N[C@@H](Cc1ccc(O)cc1)C(=O)N[C@H]1CSSC[C@@H](C(=O)N[C@@H](Cc2c[nH]c3ccccc23)C(=O)N[C@@H](Cc2ccccc2)C(=O)N[C@@H](CCC(=O)N[C@H](CCCCNC(=O)CN2CCN(CC(=O)O)CCN(CC(=O)O)CCN(CC(=O)O)CC2)C(N)=O)C(=O)O)NC(=O)[C@H](Cc2ccc(O)cc2)NC(=O)[C@H](C(C)C)NC(=O)[C@H](CC(=O)O)NC(=O)[C@H](Cc2ccc(O)cc2)NC(=O)[C@H](CCCCN)NC(=O)CNC(=O)[C@H](C(C)C)NC1=O [compound 31, Ac-Nle-Y-C-V-G-K-Y-D-V-Y-C-W-F-gE-dLys(DOTA)-CONH2] (Ac-[Nle]YCVGKYDVYCWF[γGlu][dK](DOTA)-NH2; disulfide 3-11) | 100 to 300

Same assay, conditions: read-out: SPR KD—37° C.; 4Ig B7-H3; 37° C. flow cell temperature

Structure (SMILES) | Kd [nM]
CC(=O)N[C@@H](CCC(C)C)C(=O)N[C@@H](Cc1ccc(O)cc1)C(=O)N[C@H]1CSSC[C@@H](C(=O)N[C@@H](Cc2c[nH]c3ccc(F)cc23)C(=O)N[C@@H](Cc2ccccc2)C(=O)N[C@H](C(=O)N[C@H](C)C(=O)O)C(C)(C)O)NC(=O)[C@H](Cc2ccc(O)cc2)NC(=O)[C@H](C(C)C)NC(=O)[C@H](CC(=O)O)NC(=O)[C@H](CC2CCN(C(=O)CCOCCOCCOCCOCCNC(=O)CN3CCN(CC(=O)O)CCN(CC(=O)O)CCN(CC(=O)O)CC3)CC2)NC(=O)[C@H](CCCNC(N)=O)NC(=O)CNC(=O)[C@H](C(C)(C)C)NC1=O [compound 489, Ac-hLeu-Y-C-Tbg-G-Cit-Pip(PEG4-DOTA)Ala-D-V-Y-C-5FW-F-hydroxyVal-dAla-COOH] (Ac-[hLeu]YC[Tle]G[Cit][Ala(piperidin-4-yl)]([PEG4-DOTA])DVYC[Trp(5-F)]F[Val(3-OH)][dA]-OH; disulfide 3-11) | < 1
